Test results from patent US12459974B2, “Bicyclic peptide ligands specific for Nectin-4” (priority 2018, dated 2025).
*1 amine or outer side, *2 acyl side, *3 side chain or, on linkers, in order; H or OH if unused. Where a SMILES comes first, the peptide text is derived from it. Bridges are numbered along the chain shown (N, C = ends). TATA = O=C(CC[*:1])N1CN(C(=O)CC[*:2])CN(C(=O)CC[*:3])C1

biological target: T1, human Nectin-4 (Homo sapiens, UniProt Q96NY8); experiment: Nectin-4 competition binding assay (fluorescence polarisation); details: not given
T1 sequence (Q96NY8 32-510): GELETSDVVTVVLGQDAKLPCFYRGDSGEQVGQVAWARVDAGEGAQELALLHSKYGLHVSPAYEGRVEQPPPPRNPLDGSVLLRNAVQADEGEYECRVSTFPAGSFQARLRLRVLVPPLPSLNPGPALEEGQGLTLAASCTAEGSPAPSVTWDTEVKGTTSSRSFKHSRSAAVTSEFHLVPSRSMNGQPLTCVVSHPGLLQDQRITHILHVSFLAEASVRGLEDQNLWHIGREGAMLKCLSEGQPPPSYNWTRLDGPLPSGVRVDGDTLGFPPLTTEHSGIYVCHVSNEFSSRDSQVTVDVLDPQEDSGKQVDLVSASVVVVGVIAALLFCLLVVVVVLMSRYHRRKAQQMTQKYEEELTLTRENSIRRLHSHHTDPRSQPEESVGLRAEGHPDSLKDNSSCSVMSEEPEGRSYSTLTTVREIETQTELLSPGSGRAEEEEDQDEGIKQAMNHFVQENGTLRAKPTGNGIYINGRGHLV
Experimental: Peptides were diluted to an appropriate concentration in assay buffer as described in the direct binding assay with a maximum of 5% DMSO, then serially diluted 1 in 2. Five μL of diluted peptide was added to the plate followed by 10 μL of human Nectin-4, then 10 μL fluorescent peptide added. Measurements were conducted as for the direct binding assay, however the gain was determined prior to the first measurement. Data analysis was in Systat Sigmaplot version 12.0 where the mP values were fit to a user defined cubic equation to generate a Ki value: • f=ymin+(ymax−ymin)/Lig*((Lig*((2*((Klig+Kcomp+Lig+Comp-Prot*c)^2-3*(Kcomp*(Lig-Prot*c)+Klig*(Comp-Prot*c)+Klig*Kcomp))^0.5*COS(ARCCOS((−2*(Klig+Kcomp+Lig+Comp-Prot*c)^3+9*(Klig+Kcomp+Lig+Comp-Prot*c)*(Kcomp*(Lig-Prot*c)+Klig*(Comp-Prot*c)+Klig*Kcomp)−27*(−1*Klig*Kcomp*Prot*c)/(2*((((Klig+Kcomp+Lig+Comp-Prot*c)^2−3*(Kcomp*(Lig-Prot*c)+Klig*(Comp-Prot*c)+Klig*Kcomp))^3)^0.5)))/3))−(Klig+Kcomp+Lig+Comp-Prot*c)))/((3*Klig)+((2*((Klig+Kcomp+Lig+Comp-Prot*c)^2−3*(Kcomp*(Lig-Prot*c)+Klig*(Comp-Prot*c)+Klig*Kcomp))^0.5*COS (ARCCOS ((−2*(Klig+Kcomp+Lig+Comp-Prot*c)^3+9*(Klig+Kcomp+Lig+Comp-Prot*c)*(Kcomp*(Lig-Prot*c)+Klig*(Comp-Prot*c)+Klig*Kcomp)-27*(−1*Klig*Kcomp*Prot*c))/(2*((((Klig+Kcomp+Lig+Comp-Prot*c)^2-3*(Kcomp*(Lig-Prot*c)+Klig*(Comp-Prot+c)+Klig*Kcomp))^3)^0.5))/3)−(Klig+Kcomp+Lig+Comp-Prot*c)))).
“Lig”, “KLig” and “Prot” were all defined values relating to: fluorescent peptide concentration, the Kd of the fluorescent peptide and Nectin concentration respectively.

| SMILES | Ki [nM] |
| --- | --- |
| CC[C@H](C)[C@@H]1NC(=O)[C@@H]2CCCN2C(=O)[C@H](Cc2c[nH]c3ccccc23)NC(=O)[C@H](CO)NC(=O)[C@H](Cc2c[nH]c3ccccc23)NC(=O)CNC(=O)[C@H](CCCNC(=N)N)NC(=O)[C@H](CCSC)NC(=O)[C@@H]2CSCCC(=O)N3CN(CN(C3)C(=O)CCSC[C@H](NC(=O)[C@H](C)NC(=O)[C@@H](NC(=O)[C@@H](N)CC(=O)O)[C@@H](C)O)C(=O)N3CCC[C@H]3C(=O)N[C@@H](Cc3ccccc3)C(=O)NCC(=O)N2)C(=O)CCSC[C@@H](C(=O)N[C@@H](C)C(N)=O)NC(=O)[C@H](Cc2c[nH]c3ccccc23)NC1=O [BCY3388, DTA-(SEQ ID NO: 46)-A] (H-DTACPFGCMRGWSWPIWCA-NH2; linker 4-8-18 via TATA) | 129 |

same assay, conditions: competition with fluorescent peptide SEQ ID NO: 217; read-out: Ki

| SMILES | Ki [nM] |
| --- | --- |
| CC[C@H](C)[C@@H]1NC(=O)[C@@H]2CCCN2C(=O)[C@H](Cc2c[nH]c3ccccc23)NC(=O)[C@H](CO)NC(=O)[C@H](Cc2c[nH]c3ccccc23)NC(=O)[C@H](CC(N)=O)NC(=O)[C@H](CCCNC(=N)N)NC(=O)[C@H](CCSC)NC(=O)[C@@H]2CSCCC(=O)N3CN(CN(C3)C(=O)CCSC[C@H](NC(=O)[C@H](C)N)C(=O)N3CCC[C@H]3C(=O)N[C@@H](Cc3ccccc3)C(=O)NCC(=O)N2)C(=O)CCSC[C@@H](C(=O)N[C@@H](C)C(N)=O)NC(=O)[C@H](Cc2c[nH]c3ccccc23)NC1=O [BCY429, A-(SEQ ID NO: 2)-A] (H-ACPFGCMRNWSWPIWCA-NH2; linker 2-6-16 via TATA; N-terminus and C-terminus assumed) | 42.6 |
| CC[C@H](C)[C@@H]1NC(=O)[C@H](CCCNC(=N)N)NC(=O)CNC(=O)[C@@H]2CSCCC(=O)N3CN(CN(C3)C(=O)CCSC[C@@H](C(=O)N[C@@H](C)C(N)=O)NC1=O)C(=O)CCSC[C@H](NC(=O)[C@H](C)N)C(=O)N[C@@H](Cc1c[nH]c3ccccc13)C(=O)N1CCC[C@H]1C(=O)N[C@@H](CC(C)C)C(=O)N[C@@H](CC(=O)O)C(=O)N1CCC[C@H]1C(=O)N[C@@H](Cc1ccc(O)cc1)C(=O)N[C@@H](Cc1c[nH]c3ccccc13)C(=O)N2 [BCY430, A-(SEQ ID NO: 43)-A] (H-ACWPLDPYWCGRICA-NH2; linker 2-10-14 via TATA; N-terminus and C-terminus assumed) | 310 |
| CC[C@H](C)[C@@H]1NC(=O)[C@H](CCCNC(=N)N)NC(=O)CNC(=O)[C@@H]2CSCCC(=O)N3CN(CN(C3)C(=O)CCSC[C@@H](C(=O)N[C@@H](C)C(N)=O)NC1=O)C(=O)CCSC[C@H](NC(=O)[C@H](Cc1c[nH]c3ccccc13)NC(=O)[C@H](CC(=O)O)NC(=O)[C@@H](N)CC(=O)O)C(=O)N[C@@H](C)C(=O)N1CCC[C@H]1C(=O)N[C@@H](CC(C)C)C(=O)N[C@@H](CC(=O)O)C(=O)N[C@@H](CC(=O)O)C(=O)N[C@@H](Cc1ccc(O)cc1)C(=O)N[C@@H](Cc1c[nH]c3ccccc13)C(=O)N2 [BCY433, DDW-(SEQ ID NO: 32)-A] (H-DDWCAPLDDYWCGRICA-NH2; linker 4-12-16 via TATA; N-terminus and C-terminus assumed) | 69.4 |
| CC[C@H](C)[C@@H]1NC(=O)[C@@H]2CCCN2C(=O)[C@H](Cc2c[nH]c3ccccc23)NC(=O)[C@H](CO)NC(=O)[C@H](Cc2c[nH]c3ccccc23)NC(=O)[C@H]([C@@H](C)O)NC(=O)[C@H](CCC(=O)O)NC(=O)[C@H](CCSC)NC(=O)[C@@H]2CSCCC(=O)N3CN(CN(C3)C(=O)CCSC[C@H](NC(=O)[C@H](C)NC(=O)[C@H](CC(=O)O)NC(=O)[C@@H](N)CC(=O)O)C(=O)N3CCC[C@H]3C(=O)N[C@@H](Cc3ccccc3)C(=O)NCC(=O)N2)C(=O)CCSC[C@@H](C(=O)N[C@@H](C)C(N)=O)NC(=O)[C@H](Cc2c[nH]c3ccccc23)NC1=O [BCY3386, DDA-(SEQ ID NO: 45)-A] (H-DDACPFGCMETWSWPIWCA-NH2; linker 4-8-18 via TATA; N-terminus and C-terminus assumed) | 80.2 |
| CC[C@H](C)[C@@H]1NC(=O)[C@@H]2CCCN2C(=O)[C@H](Cc2c[nH]c3ccccc23)NC(=O)[C@H](CO)NC(=O)[C@H](Cc2c[nH]c3ccccc23)NC(=O)[C@H](CC(=O)O)NC(=O)[C@H](CCCCN)NC(=O)[C@H](CCSC)NC(=O)[C@@H]2CSCCC(=O)N3CN(CN(C3)C(=O)CCSC[C@H](NC(=O)[C@H](CC(N)=O)NC(=O)[C@H](CC(=O)O)NC(=O)[C@@H](N)CO)C(=O)N3CCC[C@H]3C(=O)N[C@@H](Cc3ccccc3)C(=O)NCC(=O)N2)C(=O)CCSC[C@@H](C(=O)N[C@@H](C)C(N)=O)NC(=O)[C@H](Cc2c[nH]c3ccccc23)NC1=O [BCY3387, SDN-(SEQ ID NO: 15)-A] (H-SDNCPFGCMKDWSWPIWCA-NH2; linker 4-8-18 via TATA; N-terminus and C-terminus assumed) | 234 |
| CC[C@H](C)[C@@H]1NC(=O)[C@@H]2CCCN2C(=O)[C@H](Cc2c[nH]c3ccccc23)NC(=O)[C@H](CO)NC(=O)[C@H](Cc2c[nH]c3ccccc23)NC(=O)CNC(=O)[C@H](CO)NC(=O)[C@H](CCSC)NC(=O)[C@@H]2CSCCC(=O)N3CN(CN(C3)C(=O)CCSC[C@H](NC(=O)[C@H](CCC(=O)O)NC(=O)[C@H](CO)NC(=O)[C@@H](N)CC(=O)O)C(=O)N3CCC[C@H]3C(=O)N[C@@H](Cc3ccccc3)C(=O)NCC(=O)N2)C(=O)CCSC[C@@H](C(=O)N[C@@H](C)C(N)=O)NC(=O)[C@H](Cc2c[nH]c3ccccc23)NC1=O [BCY3389, DSE-(SEQ ID NO: 47)-A] (H-DSECPFGCMSGWSWPIWCA-NH2; linker 4-8-18 via TATA; N-terminus and C-terminus assumed) | 99.8 |
| CC[C@H](C)[C@@H]1NC(=O)[C@@H]2CCCN2C(=O)[C@H](Cc2c[nH]c3ccccc23)NC(=O)[C@H](CO)NC(=O)[C@H](Cc2c[nH]c3ccccc23)NC(=O)CNC(=O)[C@H](CCC(=O)O)NC(=O)[C@H](CCSC)NC(=O)[C@@H]2CSCCC(=O)N3CN(CN(C3)C(=O)CCSC[C@H](NC(=O)[C@H](C)NC(=O)[C@H](CC(=O)O)NC(=O)[C@@H](N)Cc3c[nH]cn3)C(=O)N3CCC[C@H]3C(=O)N[C@@H](Cc3ccccc3)C(=O)NCC(=O)N2)C(=O)CCSC[C@@H](C(=O)N[C@@H](C)C(N)=O)NC(=O)[C@H](Cc2c[nH]c3ccccc23)NC1=O [BCY3390, HDA-(SEQ ID NO: 48)-A] (H-HDACPFGCMEGWSWPIWCA-NH2; linker 4-8-18 via TATA; N-terminus and C-terminus assumed) | 302 |
| CC[C@H](C)[C@@H]1NC(=O)[C@@H]2CCCN2C(=O)[C@H](Cc2c[nH]c3ccccc23)NC(=O)[C@H](CO)NC(=O)[C@H](Cc2c[nH]c3ccccc23)NC(=O)[C@H](CC(=O)O)NC(=O)[C@H](CCC(=O)O)NC(=O)[C@H](CCSC)NC(=O)[C@@H]2CSCCC(=O)N3CN(CN(C3)C(=O)CCSC[C@H](NC(=O)[C@@H](NC(=O)[C@H](CC(=O)O)NC(=O)[C@@H](N)CCSC)[C@@H](C)O)C(=O)N3CCC[C@H]3C(=O)N[C@@H](Cc3ccccc3)C(=O)NCC(=O)N2)C(=O)CCSC[C@@H](C(=O)N[C@@H](C)C(N)=O)NC(=O)[C@H](Cc2c[nH]c3ccccc23)NC1=O [BCY3391, MDT-(SEQ ID NO: 49)-A] (H-MDTCPFGCMEDWSWPIWCA-NH2; linker 4-8-18 via TATA; N-terminus and C-terminus assumed) | 198 |
| CC[C@H](C)[C@@H]1NC(=O)[C@@H]2CCCN2C(=O)[C@H](Cc2c[nH]c3ccccc23)NC(=O)[C@H](CO)NC(=O)[C@H](Cc2c[nH]c3ccccc23)NC(=O)CNC(=O)[C@@H]2CCCN2C(=O)[C@H](CCSC)NC(=O)[C@@H]2CSCCC(=O)N3CN(CN(C3)C(=O)CCSC[C@H](NC(=O)CNC(=O)[C@@H]3CCCN3C(=O)[C@@H](N)CC(=O)O)C(=O)N3CCC[C@H]3C(=O)N[C@@H](Cc3ccccc3)C(=O)NCC(=O)N2)C(=O)CCSC[C@@H](C(=O)N[C@@H](C)C(N)=O)NC(=O)[C@H](Cc2c[nH]c3ccccc23)NC1=O [BCY3392, DPG-(SEQ ID NO: 50)-A] (H-DPGCPFGCMPGWSWPIWCA-NH2; linker 4-8-18 via TATA; N-terminus and C-terminus assumed) | 36.3 |
